Measurements as given in patent US8524302B2, “Natural flavour enhancers and methods for making same” (Pepsico, priority 2009, dated 2013).
“Also recorded” adds a separate entry of the source.

Key:
Type in all cases: in vivo
[1] = test system: sensory panel; assay: Sensory (triangle) tests of the compounds in water; details: for Intensity (0-5): pH 6.5, aroma and taste intensity, scale 0-5; for Sensory descriptors: pH 6.5; for kokumi sensation (in words): without inducing or glutamate-containing composition
Description: (§1) Unless otherwise indicated, all sensory tests for the samples are determined using triangle tests (Wieser and Belitz, Z. Lebensm. Unters. Forsch., 1975, 159, 65-72) in three different sessions. The sensory panel is trained to evaluate aqueous solutions (2 mL each) of the following reference taste compounds dissolved in bottled water with a pH of 6.0: sucrose (25 mmol/L) for sweet taste; lactic acid (20 mmol/L) for sour taste; NaCl (30 mmol/L) for salty taste; caffeine (1 mmol/L) for bitter taste; and MSG (3 mmol/L) for umami taste, tannic acid (0.05%) for puckering astringency, and quercetin-O-β-D-glucopyranoside (0.01 mmol/L) for a velvety astringent, mouth-drying oral sensation. For the training of viscosity, a gelatin solution (0.5% in water) was used. […] Sensory analyses were performed in a sensory panel room at 19-22° C. in three different sessions using nose clamps.
(§2) For recording the taste profiles, samples are prepared as indicated in the examples below. Flavor profiles of samples are determined in a triangle test in three different sessions. Panelists refrain from eating or drinking for at least 1 hour prior to the session. At the start of the session and before each trial, the subjects rinsed with water and expectorated. The participants receive a set of two blanks and one taste sample. Liquids are swirled around in the mouth briefly and expectorated. […] Each sample with additive is compared to two reference samples without additives. Kokumi intensity is rated according to a scale from 0 to 5 (with 5 being the most intensive). Punch refers to an initial kokumi sensation experienced in the mouth within 0-3 seconds from the time when a food or liquid is put in the mouth, while long-lasting refers to kokumi felt after 10-60 seconds therefrom.
Sensory (triangle) tests are performed by dissolving the listed compounds in water (Evian®). Additives are added as specified in table below. The pH-value of all samples is adjusted to 6.5 using formic acid (0.1 mol/L) or sodium hydroxide (0.1 mol/L). For each sample, aroma and taste intensity is rated and panelists are asked to describe sensory characteristics.

[2] = test system: sensory panel; assay: Sensory (triangle) tests: kokumi intensity in chicken broth; details: for Kokumi intensity (0-5): pH 6.5, scale 0-5 (blank = 2)
Description: as §1, §2
Sensory (triangle) tests are performed by dilution of 3 grams of chicken broth concentrate (Gourmet Bouillon Huhn; Maggi, Singen, Germany) with 100 mL water (Evian®). Additives are added as specified in table below. The pH-value of all samples is adjusted to 6.5 using formic acid (0.1 mol/L) or sodium hydroxide (0.1 mol/L). […] For each sample, kokumi intensity is rated and panelists were asked to describe sensory characteristics.

[3] = test system: sensory panel; assay: Sensory tests (organoleptic evaluation) of compounds added to inducing compositions; details: for kokumi sensation (in words): after undergoing an Amadori reaction; for kokumi sensation / flavour enhancing sensation (in words): added to various inducing compositions or foods
Description: Sensory tests subjecting the flavour enhancing compounds to organoleptic evaluation indicate that the isolated flavouring compounds are substantially tasteless in the form of an aqueous solution, but are useful for imparting the enhanced effects when added even in small amounts to certain inducing compositions or food products containing a glutamate and/or nucleic acid as further described below. […] The thresholds given herein are meant to reflect minimum amounts for use in chicken broth as a matrix; however, one skilled in the art, armed with this disclosure, will recognize that this amount can be adjusted, either higher or lower, dependent upon the matrix used and the desired intensity of the kokumi effect. In general, a certain amount of salt is also necessary to achieve the kokumi effect; typically, about 12 mmol/L, which is found naturally in nearly all food products. The compounds can be applied to different kinds of foods including without limitation snacks, soups, cereals, sauces, fish, and fish paste. Unless otherwise indicated, all sensory tests for the samples are determined using triangle tests ([…] and Belitz, Z. Lebensm. Unters. Forsch., 1975, 159, 65-72) in three different sessions. The sensory panel is trained to evaluate aqueous solutions (2 mL each) of the following reference taste compounds dissolved in bottled water with a pH of 6.0: sucrose (25 mmol/L) for sweet taste; lactic acid (20 mmol/L) for sour taste; NaCl (30 mmol/L) for salty taste; caffeine (1 mmol/L) for bitter taste; and MSG (3 mmol/L) for umami taste, tannic acid (0.05%) for puckering astringency, and quercetin-O-β-D-glucopyranoside (0.01 mmol/L) for a velvety astringent, mouth-drying oral sensation. For the training of viscosity, a gelatin solution (0.5% in water) was used. […] Sensory analyses were performed in a sensory panel room at 19-22° C. in three different sessions using nose clamps. For recording the taste profiles, samples are prepared as indicated in the examples below. Flavor profiles of samples are determined in a triangle test in three different sessions. Panelists refrain from eating or drinking for at least 1 hour prior to the session. At the start of the session and before each trial, the subjects rinsed with water and expectorated. The participants receive a set of two blanks and one taste sample. Liquids are swirled around in the mouth briefly and expectorated. […] Each sample with additive is compared to two reference samples without additives.

## C=CCSC[C@H](N)C(=O)O [S-allyl-L-cysteine]
[1]; additive 10 mmol/L
  Intensity (0-5): 1
[2]; additive 10 mmol/L
  Kokumi intensity (0-5): 3.3
[3]
  kokumi sensation (in words): good kokumi sensation

## C/C=C/SC[C@H](NC(=O)CC[C@H](NC(=O)[C@H](CS/C=C/C)NC(=O)CC[C@H](N)C(=O)O)C(=O)O)C(=O)O [γ-L-glutamyl-(E)-S-1-propenyl-L-cysteinyl-γ-L-glutamyl-(E)-S-1-propenyl-L-cysteine]
[1]; additive 10 mmol/L
  Sensory descriptors: flavourless
  Intensity (0-5): 0
[1]
  kokumi sensation (in words): no kokumi sensation
[2]; additive 10 mmol/L
  Kokumi intensity (0-5): 3.3
[3]
  kokumi sensation / flavour enhancing sensation (in words): strong flavour enhancing sensation

## C/C=C/SC[C@H](NC(=O)CC[C@H](N)C(=O)O)C(=O)O [γ-L-glutamyl-(E)-S-1-propenyl-L-cysteine]
[1]; additive 10 mmol/L
  Sensory descriptors: onion aroma
  Intensity (0-5): 0.5
[2]; additive 10 mmol/L
  Kokumi intensity (0-5): 3.3
[3]
  kokumi sensation (in words): good kokumi sensation

## CC=CSCC(NC(=O)CCC(N)C(=O)O)C(=O)NC(C[S+]([O-])C=CC)C(=O)O (racemic) [γ-L-glu-(E)-S-(propen-1-yl)-L-cys-(E)-S-(propen-1-yl)-L-cys-(+/−)-SO]
[1]; additive 5 mmol/L
  Sensory descriptors: flavourless
  Intensity (0-5): 0
[1]
  kokumi sensation (in words): no kokumi sensation
[2]; Table 10
  kokumi effect (in words): surprisingly potent kokumi effect
[2]; additive 5 mmol/L
  Kokumi intensity (0-5): 4.5
[3]; listed as formula (I)
  kokumi sensation / flavour enhancing sensation (in words): strong kokumi sensation; also recorded: surprisingly highly potent kokumi effect; also recorded: strong flavour enhancing sensation
